# Where two headings read alike, the source gives them in different places.
# Columns and labels:
# [1] = system: SARS-CoV-2 (USA-WA1/2020) in Calu-3 cells; assay: microbe, parasite or virus in culture; format: cell-based; conditions: for Effect on dsRNA / virus in dose response: Figure 5C-F; for EC50 / EC50 (μM) dsRNA: above 30 μM reported as >30; for EC50: read-out: EC50 (μM) dsRNA
# [2] = system: Calu-3 cells infected with SARS-CoV-2; format: cell-based, human; set-up: key to Grouping with red cluster (mock control) in UMAP: *: Clusters with mock control in high-dose treatment; conditions: for Shift in UMAP space with increasing concentration: Figure 5C-F; for Grouping with red cluster (mock control) in UMAP: high-dose treatment
# Calu-3 cells [3] = conditions: for Effect on host cell viability and morphology: Figure 5C-F; for EC50: read-out: EC50 (μM) Cell count, Calu-3, DAPI-stained nuclei, above 30 μM reported as >30
# Calu-3 cells [4] = assay: cells; conditions: Homo sapiens, Calu-3, read-out: EC50 (μM) Cell count
# [5] = system: SARS-CoV-2 (USA-WA1/2020) in Calu-3 cells; format: cell-based; conditions: for dsRNA signal, AU High: high dose (10 µM); for dsRNA signal, AU High / dsRNA signal, AU Low: Calu-3, 48 h; for dsRNA signal, AU Low: low dose (100 nM)
# [6] = system: SARS-Cov-2 WA strain in A549 lung cells; format: cell-based
# [7] = Severe acute respiratory syndrome coronavirus 2, Calu-3, 48 h
# [8] = fold: cell count EC50 over dsRNA EC50
SMILES,Effect on dsRNA / virus in dose response [1],"EC50 [1, 7] [µM]",Shift in UMAP space with increasing concentration [2],Effect on host cell viability and morphology (Calu-3 cells [3]),EC50 (Calu-3 cells [4]) [µM],EC50 (μM) dsRNA [1],Grouping with red cluster (mock control) in UMAP [2],"dsRNA signal, AU High [5] [AU]","dsRNA signal, AU Low [5] [AU]",EC50 (Calu-3 cells [3]) [µM],"Selectivity index [1, 8]",Reduction of infection in representative images ([5]; Figure 4A),Selectivity index [1],Synergy (ZIP synergy model) [6],EC50 [1] [µM]
CCc1cc2c(cc1N1CCC(N3CCOCC3)CC1)C(C)(C)c1[nH]c3cc(C#N)ccc3c1C2=O [CH5424802],reduced dsRNA very well,> 30,adjacent yellow cluster,blebbing and general toxicity,> 30,,,,,,,,,,
"O=C(O[C@@H]1Cc2c(O)cc(O)cc2O[C@@H]1c1cc(O)c(O)c(O)c1)c1cc(O)c(O)c(O)c1 [Epigallocatechin gallate (EGCG), Epigallocatechin gallate]",,,,,,None,Epigallocatechin gallate (EGCG)*,14230.9,24448.0,> 30,,,,,
Cc1c(Cn2c(C)nc3c(C(=O)O)cc(N4CCOCC4)cc32)cccc1C(F)(F)F [GSK2636771],reduction of dsRNA,0.319,shift closer to cluster 1 controls,minimal effect on host cell viability and morphology,> 30,,GSK2636771*,841.3,28354.9,,>94,reduced infection greatly,,,
CC(C)n1nc(-c2ccc3oc(N)nc3c2)c2c(N)ncnc21 [INK 128],,0.213,moving into cluster 1,little effect on host cell viability,2.47,,INK 128*,0.0,31875.7,,,,11.590,Antagonism,
C=CC(=O)N1CCC[C@@H](n2nc(-c3ccc(Oc4ccccc4)cc3)c3c(N)ncnc32)C1 [Ibrutinib],did block the virus in high concentrations,13.7,,significant cell toxicity,> 30,,,3646.9,17695.2,,,,,,
Cl.Cl.O=C(Cc1ccc(-c2ccc(OCCN3CCOCC3)cc2)cn1)NCc1ccccc1 [KX2-391 dihydrochloride],,,,,,,,1685.1,2878.5,0.136,0.016,,,,8.72
O=C(Nc1ncc(SCCN2CCCC2)s1)[C@]1(c2ccc(S(=O)(=O)C3CC3)cc2)C[C@H]1C1CCCCC1 [Ly2608204],,,,,,,Ly2608204*,,,20.9,<0.69,,,,> 30
CN(c1ncccc1CNc1nc(Nc2ccc3c(c2)CC(=O)N3)ncc1C(F)(F)F)S(C)(=O)=O [PF-00562271],,,,,,,PF-00562271*,,36485.5,4.39,0.510,,,,8.6
Cc1ccc(Nc2nccc(N(C)c3ccc4c(C)n(C)nc4c3)n2)cc1S(N)(=O)=O.Cl [Pazopanib HCl],,,,,,,Pazopanib HCl*,14157.8,9479.9,> 30,>3.5,,,,8.64
Cc1ncc(CO)c(CO)c1O [Pyridoxine],,> 30,,,> 30,,Pyridoxine*,17847.0,29400.2,,,,,,
"COc1cc(Nc2ncc(F)c(Nc3ccc4c(n3)NC(=O)C(C)(C)O4)n2)cc(OC)c1OC [R406, reference compound]",,,,,,None,,5357.1,30563.4,1.84,,,,,
Cc1cnc(Nc2ccc(OCCN3CCCC3)cc2)nc1Nc1cccc(S(=O)(=O)NC(C)(C)C)c1 [TG101348],,,,,1.61,None,TG101348*,3065.1,15118.2,,,,,,
CC(C)c1cc(CNc2nc(Nc3cc(C4CC4)[nH]n3)cc(N3CCN(C)CC3)n2)on1 [XL228],,0.0745,,,0.0664,,XL228*,17836.6,39819.2,,0.891,,,,

# Source: PMC12142043, “Cell-based high-content approach for SARS-CoV-2 neutralization identifies unique monoclonal antibodies and PI3K pathway inhibitors” (Frontiers in Cell and Developmental Biology, 2025)
